Experimental data: US7351731B2, “Azole derivatives and methods for making the same” (Board of Governors for Higher Education, State of Rhode …, priority 2005, dated 2008)
≈ marks a conversion by molar mass, not a printed value.

Key:
C. albicans ATCC 14053 [1] = assay: MIC microdilution susceptibility testing, C. albicans in SDB; assay type: cell-based, Candida albicans; settings: 24-48 h, average of three experiments; for MIC: Candida albicans
Method: (§1) Microorganisnis. […] Stock cultures were kept on Sabouraud dextrose agar (SDA; Becton-Dickinson and Co., Sparks, Md.). Subcultures were prepared on SDA at 35-37° C. Suspension cultures were prepared by inoculation of single colonies in 7 ml of normal saline solution.
(§2) Test compounds were dissolved in DMSO (0.56 mg/ml) and stored at 0° C. Working dilutions were made in RPMI or SDB medium. […] The final maximum concentration of DMSO in the assays was 5% (v/v).
(§3) Microdilutions for control experiments with C. albicans, A. niger, and C. neoformans were the modified method of National Committee for Clinical Laboratory Standards (NCCLS) method as described by Galgiani and by the more recent NCCLS M27-A microdilution methods as described previously. Galgiani, J. N. Antimicrob. Agents Chemother. […] Reference method for broth dilution antifungal susceptibility testing for yeasts. Approval standard. […] 9; C. arballeira, N. M., et al. Arch. Pharm.-Pharm. […] Dilutions were prepared in 0.1 ml of RPMI or SDB; the inocula were either 10^4 C. albicans or C. neoformans cells or A. niger spores. The tubes were incubated for 24-48 h at 36±1° C., and turbidity was read visually.

C. albicans ATCC 14053 [2] = assay: MIC microdilution susceptibility testing, C. albicans in RPMI; assay type: cell-based, Candida albicans; settings: for MIC: Candida albicans
Method: as §1, §2, §3

A. niger ATCC 16404 = assay: MIC microdilution susceptibility testing, A. niger in SDB; assay type: cell-based, Aspergillus niger; settings: SDB medium, 35-37° C., 24-48 h, average of three experiments; for MIC: Aspergillus niger, ATCC16404
Method: as §1, §2, §3

C. neoformans ATCC 66031 = assay: MIC microdilution susceptibility testing, C. neoformans in SDB; assay type: cell-based, Cryptococcus neoformans; settings: SDB medium, 35-37° C., 24-48 h, average of three experiments; for MIC: Cryptococcus neoformans, ATCC66031
Method: as §1, §2, §3

[3] = RPMI medium pH 6.9, 35-37° C., 24-48 h, average of three experiments
[4] = ATCC14053, pH 5.6, SDB medium pH 5.6, 35-37° C.
[5] = ATCC14053, RPMI medium pH 6.9, 35-37° C., 24-48 h, average of three experiments, read-out: MIC C. albicans ATCC 14053, RPMI
[6] = ATCC14053, SDB medium pH 5.6, 35-37° C.
[7] = ATCC14053, pH 6.9, read-out: MIC C. albicans ATCC 14053, RPMI

CCCC(Br)C(=O)OC(Cn1cncn1)(Cn1cncn1)c1ccc(F)cc1F (stereo not drawn) [Compound 1e, O-2-Bromovaleroylfluconazole]
MIC C. albicans ATCC 14053, SDB (C. albicans ATCC 14053 [1]; SDB medium pH 5.6, 35-37° C.): 552 µg/mL (≈ 1180 µM) | MIC C. albicans ATCC 14053, RPMI (C. albicans ATCC 14053 [2]; [3]): 275 µg/mL (≈ 586 µM) | MIC A. niger ATCC 16404, SDB (A. niger ATCC 16404): ≧1,100 μg/mL | MIC C. neoformans ATCC 66031, SDB (C. neoformans ATCC 66031): 1,100 μg/mL

CC(Br)C(=O)OC(Cn1cncn1)(Cn1cncn1)c1ccc(F)cc1F (stereo not drawn) [Compound 1c, O-2-Bromopropionylfluconazole]
MIC C. albicans ATCC 14053, SDB (C. albicans ATCC 14053 [1]; SDB medium pH 5.6, 35-37° C.): 656 µg/mL (≈ 1490 µM) | MIC C. albicans ATCC 14053, RPMI (C. albicans ATCC 14053 [2]; [3]): 656 µg/mL (≈ 1490 µM) | MIC A. niger ATCC 16404, SDB (A. niger ATCC 16404): >656 µg/mL | MIC C. neoformans ATCC 66031, SDB (C. neoformans ATCC 66031): 656 µg/mL (≈ 1490 µM)

Fc1ccc(C(Cl)(Cn2cncn2)Cn2cncn2)c(F)c1 [Cl]
MIC (C. albicans ATCC 14053 [1]; [4]): > 883 µg/mL | MIC (C. albicans ATCC 14053 [2]; [5]): 1140 µg/mL (≈ 3500 µM) | MIC (A. niger ATCC 16404): 883 µg/mL (≈ 2720 µM) | MIC (C. neoformans ATCC 66031): 28 µg/mL (≈ 86.2 µM)

CS(=O)(=O)C(Cn1cncn1)(Cn1cncn1)c1ccc(F)cc1F [Mesyl]
MIC (C. albicans ATCC 14053 [1]; [4]): 1290 µg/mL (≈ 3500 µM) | MIC (C. albicans ATCC 14053 [2]; [5]): 645 µg/mL (≈ 1750 µM) | MIC (A. niger ATCC 16404): 1290 µg/mL (≈ 3500 µM) | MIC (C. neoformans ATCC 66031): 40 µg/mL (≈ 109 µM)

CCCCC(Br)C(=O)OC(Cn1cncn1)(Cn1cncn1)c1ccc(F)cc1F (stereo not drawn) [Compound 1f, O-2-Bromohexanoylfluconazole]
MIC C. albicans ATCC 14053, SDB (C. albicans ATCC 14053 [1]; SDB medium pH 5.6, 35-37° C.): 492 µg/mL (≈ 1020 µM) | MIC C. albicans ATCC 14053, RPMI (C. albicans ATCC 14053 [2]; [3]): 61 µg/mL (≈ 126 µM) | MIC A. niger ATCC 16404, SDB (A. niger ATCC 16404): ≧979 μg/mL | MIC C. neoformans ATCC 66031, SDB (C. neoformans ATCC 66031): 492 µg/mL (≈ 1020 µM)

Fc1ccc(C(Br)(Cn2cncn2)Cn2cncn2)c(F)c1 [Br]
MIC (C. albicans ATCC 14053 [1]; [4]): > 701 µg/mL | MIC (C. albicans ATCC 14053 [2]; [5]): 701 µg/mL (≈ 1900 µM) | MIC (A. niger ATCC 16404): 701 µg/mL (≈ 1900 µM) | MIC (C. neoformans ATCC 66031): 22 µg/mL (≈ 59.6 µM)

CCCCCCCCCCC(Br)C(=O)O (stereo not drawn) [2-Bromolauric acid, reference compound]
MIC (C. albicans ATCC 14053 [1]; [4]): 155 µg/mL (≈ 555 µM) | MIC (C. albicans ATCC 14053 [2]; [5]): 155 µg/mL (≈ 555 µM) | MIC (A. niger ATCC 16404): 78 µg/mL (≈ 279 µM) | MIC (C. neoformans ATCC 66031): 19 µg/mL (≈ 68 µM)

CCCCCCCCCCCO [Compound 1-Undecanol, 1-Undecanol, reference compound]
MIC (C. albicans ATCC 14053 [1]; [4]): 87 µg/mL (≈ 505 µM) | MIC (A. niger ATCC 16404): 87 µg/mL (≈ 505 µM) | MIC (C. neoformans ATCC 66031): 28 µg/mL (≈ 162 µM)

OCCCCCCCCCCCBr [11-Bromoundecanol, reference compound]
MIC (C. albicans ATCC 14053 [1]; [4]): 95 µg/mL (≈ 378 µM) | MIC (A. niger ATCC 16404): 24 µg/mL (≈ 95.5 µM) | MIC (C. neoformans ATCC 66031): 12 µg/mL (≈ 47.8 µM)

C=CCCCCCCCCCO [ω-Undecylenyl alcohol, reference compound]
MIC C. albicans ATCC 14053, SDB (C. albicans ATCC 14053 [1]; SDB medium pH 5.6, 35-37° C.): 110 µg/mL (≈ 646 µM) | MIC A. niger ATCC 16404, SDB (A. niger ATCC 16404): 27 µg/mL (≈ 159 µM) | MIC C. neoformans ATCC 66031, SDB (C. neoformans ATCC 66031): 14 µg/mL (≈ 82.2 µM)

CCCCCCCCCCCCC(Br)C(=O)OC(Cn1cncn1)(Cn1cncn1)c1ccc(F)cc1F (stereo not drawn) [Compound 1i, O-2-Bromomyristoylfluconazole]
MIC C. albicans ATCC 14053, SDB (C. albicans ATCC 14053 [1]; SDB medium pH 5.6, 35-37° C.): 731 µg/mL (≈ 1230 µM) | MIC C. albicans ATCC 14053, RPMI (C. albicans ATCC 14053 [2]; [3]): 731 µg/mL (≈ 1230 µM) | MIC A. niger ATCC 16404, SDB (A. niger ATCC 16404): >731 µg/mL | MIC C. neoformans ATCC 66031, SDB (C. neoformans ATCC 66031): 731 µg/mL (≈ 1230 µM)

CC(=O)O [Acetic acid, reference compound]
MIC (C. albicans ATCC 14053 [1]; [4]): ≥ 220 µg/mL | MIC (C. albicans ATCC 14053 [2]; [5]): ≥ 220 µg/mL | MIC (A. niger ATCC 16404): ≥ 220 µg/mL | MIC (C. neoformans ATCC 66031): ≥ 220 µg/mL

CCCCC(Br)C(=O)O (stereo not drawn) [2-Bromohexanoic acid, reference compound]
MIC (C. albicans ATCC 14053 [1]; [6]): 710 µg/mL (≈ 3640 µM) | MIC (C. albicans ATCC 14053 [2]; [7]): ≥ 710 µg/mL | MIC (A. niger ATCC 16404): 710 µg/mL (≈ 3640 µM) | MIC (C. neoformans ATCC 66031): 355 µg/mL (≈ 1820 µM)

Fc1ccc(C(I)(Cn2cncn2)Cn2cncn2)c(F)c1 [I]
MIC (C. albicans ATCC 14053 [1]; [4]): > 749 µg/mL | MIC (C. albicans ATCC 14053 [2]; [5]): 749 µg/mL (≈ 1800 µM) | MIC (A. niger ATCC 16404): 749 µg/mL (≈ 1800 µM) | MIC (C. neoformans ATCC 66031): 47 µg/mL (≈ 113 µM)

CCC(Br)C(=O)O (stereo not drawn) [2-Bromobutyric acid, reference compound]
MIC (C. albicans ATCC 14053 [1]; [6]): > 513 µg/mL | MIC (C. albicans ATCC 14053 [2]; [7]): 513 µg/mL (≈ 3070 µM) | MIC (C. neoformans ATCC 66031): > 513 µg/mL

CCCCCCCCCCCCCC(=O)OC(Cn1cncn1)(Cn1cncn1)c1ccc(F)cc1F [Compound 1b, O-Tetradecanoylfluconazole]
MIC C. albicans ATCC 14053, SDB (C. albicans ATCC 14053 [1]; SDB medium pH 5.6, 35-37° C.): 718 µg/mL (≈ 1390 µM) | MIC C. albicans ATCC 14053, RPMI (C. albicans ATCC 14053 [2]; [3]): 718 µg/mL (≈ 1390 µM) | MIC A. niger ATCC 16404, SDB (A. niger ATCC 16404): ≧718 μg/mL | MIC C. neoformans ATCC 66031, SDB (C. neoformans ATCC 66031): 718 µg/mL (≈ 1390 µM)

CC(=O)OC[C@H]1O[C@@H](OP(=O)(OCCC#N)OC(Cn2cncn2)(Cn2cncn2)c2ccc(F)cc2F)[C@H](OC(C)=O)[C@@H](OC(C)=O)[C@@H]1OC(C)=O (stereo partly drawn) [Compound 4a, 2-Cyanoethyl-[1-(β-D-2,3,4,6-glucosyltetraacetate)]fluconazole phosphate]
MIC C. albicans ATCC 14053, SDB (C. albicans ATCC 14053 [1]; SDB medium pH 5.6, 35-37° C.): 1,999 μg/mL | MIC A. niger ATCC 16404, SDB (A. niger ATCC 16404): 1,999 μg/mL | MIC C. neoformans ATCC 66031, SDB (C. neoformans ATCC 66031): 551 µg/mL
